Assay results from patent US5922775A, “Method of treating malignant tumors with ketone thyroxine analogues having no significant hormonal activity” (priority 1997, dated 1999).
“Also recorded” adds a separate entry of the source.

Tests used:
[1] = test system: human mammary cancer cells (MDA-MB-231); assay: Growth of human mammary cancer cells (Table 2 A); assay type: cell-based; conditions: 2 μM
Description: (§1) The effects of these three substances on the growth of human mammary cancer cells (MDA-MB-231) and human lung cancer cells (A 549) are summarized in Table 2.
In section (a) of Table 2 the effects of DIME, DIPE and DIPP on the growth of mammary cancer cells, assayed at 48 and 72 hrs, is shown. […] The slightly lesser efficacy of DIPP could be predicted from earlier results obtained with DIME analogs (International Journal of Oncology, 1997, 10, 689-695, FIG. 1) where we have shown that extending the methyl to ethyl substitution (on the carboxyl ester) diminishes cytotoxicity against tumor cells. A similar phenomenon occurs when DIPE is extended to DIPP (i.e. from the ethanone to the propanone).
(§2) (×10^3) Cell number per 2 cm^2

[2] = test system: human lung cancer cells (A 549); assay: Growth of human lung cancer cells (Table 2 B); assay type: cell-based
Description: as §1, §2

[3] = test system: mammary cancer cells; assay: Colony formation by mammary cancer cells (FIG. 1); assay type: cell-based, human; conditions: DIME vs DIPE
Description: FIG. 1 is a graph illustrating the cell killing effects of DIME and DIPE on mammary cancer colonies;
The effect of DIME and DIPE on colony formation by mammary cancer cells is illustrated in FIG. 1, where the results are superimposable, confirming that cytocidal action of DIME and DIPE are indistinguishable.

[4] = test system: cellular esterases; assay: Stability against cellular esterases
Description: Moreover, amide analogs of DIME, having an NH2 or a substituted amino group, may be subject to hydrolysis catalyzed by cellular amidases. Since the hydrolysis product of such a hydrolysis is a carboxylic acid, the same decrease in efficacy can result. In order to decrease the chemical lability in the DIME pharmacophore structure, ketone analogues of DIME may be used.
A more detailed kinetic comparison of DIME, DIPE and DIPP on the kinetics of MTP assembly, in a concentration range of zero to 10 μM drug and a louvered GTP concentration (10 μM), is shown in FIG. 3.

[5] = test system: cancer cells; assay: Blocking of mitosis in cancer cells; assay type: cell-based
[6] = test system: Rana pipiens tadpoles; conditions: tadpole metamorphosis; cited from earlier work
[7] = test system: thyroid iodine uptake; conditions: rats; as compared to thyroxine; cited from earlier work
[8] = test system: non-malignant mouse pituitary adenoma; conditions: cited from earlier work
[9] = test system: protein phosphatase 2A; conditions: cited from earlier work
[10] = oral, 1 g/Kg/day for two to three months; cited from earlier work
[11] = test system: biosynthetic pathways of DNA, RNA or proteins; conditions: cited from earlier work

COC(=O)c1cc(I)c(Oc2ccc(OC)cc2)c(I)c1 [DIME, methyl 3,5-diiodo-4-(4'-methoxyphenoxy)benzoate]
Cell number ([1]; 48 hours, control 150): 60 ×10^3 cell number per 2 cm^2 w | Cell number ([1]; 72 hours, control 300): 65 ×10^3 cell number per 2 cm^2 w | Cell number ([2]; 2 μM, 48 hours, control 110): 100 ×10^3 cell number per 2 cm^2 w | Cell number ([2]; 2 μM, 72 hours, control 190): 180 ×10^3 cell number per 2 cm^2 w | Cell number ([2]; 5 μM + BNPP 150 μM (esterase inhibitor), 48 hours, control 110): 24 ×10^3 cell number per 2 cm^2 w | Cell number ([2]; 5 μM + BNPP 150 μM (esterase inhibitor), 72 hours, control 190): 15 ×10^3 cell number per 2 cm^2 w | Cell number ([2]; 5 μM, 48 hours, control 110): 72 ×10^3 cell number per 2 cm^2 w | Cell number ([2]; 5 μM, 72 hours, control 190): 135 ×10^3 cell number per 2 cm^2 w | effect of esterase inhibitor BNPP on cytocidal action ([2]; lung cancer cells, with BNPP): the esterase inhibitor supported the DIME effect (at 72 hrs) | effect on colony formation (FIG. 1) [3]: superimposable | stability against esterases [4]: labile with respect to hydrolysis catalyzed by cellular esterases | blocking of mitosis in cancer cells [5]: capable of blocking mitosis in cancer cells | cell differentiating / metamorphogenic activity [6]: no significant metabolic or metamorphogenic action; also recorded: no significant metabolic or cell differentiating activity | inhibition of uptake of iodine into the thyroid [7]: 15% | inhibition of growth of non-malignant pituitary tumor [8]: no inhibitory activity | activation of protein phosphatase 2A [9]: directly activates protein phosphatase 2A | toxicity [10]: not toxic | inhibition of biosynthetic pathways of DNA, RNA or proteins [11]: nor does it inhibit the biosynthetic pathways of DNA, RNA or proteins
